Test results: patent publication US20230183640A1, “METABOLIC INHIBITORS WITH EFFICACY FOR INHIBITING SULFIDE PRODUCTION IN HARSH ENVIRONMENTS” (MC (US) 3 LLC, priority 2020, published 2023)

Legend:
Type in all cases: cell-based
Escherichia coli 8739 = experiment: Log (Growth) efficacy in aerobic conditions, non-SRB bacteria
Experimental: (§1) 24-hour cultures were made of ATCC Escherichia coli 8739, Pseudomonas aeruginosa 15442, Enterobacter aerogenes 13048, and Klebsiella pneumoniae 13883. The cultures were prepared by taking a loop of a pure bacterial colony and inoculating 10 mL of TSB. These were grown for 24 hours at 30° C.
(§2) Following the 24-hour incubation, 600 microliters (μL) were taken from each culture and optical density (OD) was measured using a Thermofisher Spectronic 200 Spectrophotometer at 600 nm. Each culture was diluted to 0.05 OD600 in fresh Phosphate Buffered Saline (PBS). Using these cultures, two deep well plates were prepared. Edge wells were not used due to their inherent variability and evaporation of the media. Each of the components were added at their respective concentrations for a final volume of […] per well. In Table 8, the concentrations of the compound C1 used for the experiments are listed. Each experiment was done with at least three replicates for different treatments and non-treatment controls. Plates were then sealed with a titer-top and incubated in an incubator at 30° C.
(§3) Enumerations were done at each time point, which included 0 hour, 1 hour, 4 hours and 24 hours. Enumeration plates were made to determine the log growth in each dosed sample. For this process, enumeration plates were prepared by adding 180 μL fresh TSB. 20 μL was taken from each well of the challenge plates and transferred to the enumeration plates using a 20-200 μL multichannel pipette. Enumeration plates were mixed three times using the multichannel pipette and serial diluted down the plate tenfold (20 μL into 180 μL). This serial dilution process was repeated for all challenge plate rows giving a total of 6 enumeration plates. These enumeration plates were read after 24-hours and by counting the number of turbid wells in a row.

[1] = test system: Pseudomonas aeruginosa 15442; experiment: as above
Experimental: as §1, §2, §3

[2] = test system: Klebsiella pneumoniae 13883; experiment: as above
Experimental: as §1, §2, §3

[3] = test system: Enterobacter aerogenes 13048; experiment: as above
Experimental: as §1, §2, §3

[4] = test system: various microorganism strains; experiment: Comparative testing of C1 in aerobic and anaerobic conditions; conditions: Examples 2 and 3
From the text: Therefore, to further analyze the efficacy of compound C1, comparative testing was done in both aerobic and anaerobic conditions using additional bacteria cultures. For aerobic conditions testing, the following strains were used: Escherichia coli, Pseudomonas aeruginosa, Enterobacter aerogenes, and Klebsiella pneumoniae. For anaerobic testing, the following strains were used: Klebsiella pneumoniae, Enterobacter aerogenes, Escherichia coli, and Enterococcus faecalis.

SMILES: O=C(CN1C(=O)c2cccc3cccc(c23)C1=O)NO [C1]
- Log (Growth) (Escherichia coli 8739; 0 hours, 6.25 PPM): 7.000
- Log (Growth) (Escherichia coli 8739; 0 hours, 12.5 PPM): 6.667
- Log (Growth) (Escherichia coli 8739; 0 hours, 25 PPM): 7.000
- Log (Growth) (Escherichia coli 8739; 0 hours, 50 PPM): 7.333
- Log (Growth) (Escherichia coli 8739; 0 hours, 100 PPM): 7.000
- Log (Growth) (Escherichia coli 8739; 0 hours, 200 PPM): 7.000
- Log (Growth) (Escherichia coli 8739; 1 hour, 6.25 PPM): 7.000
- Log (Growth) (Escherichia coli 8739; 1 hour, 12.5 PPM): 8.000
- Log (Growth) (Escherichia coli 8739; 1 hour, 25 PPM): 7.333
- Log (Growth) (Escherichia coli 8739; 1 hour, 50 PPM): 6.333
- Log (Growth) (Escherichia coli 8739; 1 hour, 100 PPM): 6.333
- Log (Growth) (Escherichia coli 8739; 1 hour, 200 PPM): 6.333
- Log (Growth) (Escherichia coli 8739; 4 hours, 6.25 PPM): 7.000
- Log (Growth) (Escherichia coli 8739; 4 hours, 12.5 PPM): 7.333
- Log (Growth) (Escherichia coli 8739; 4 hours, 25 PPM): 7.000
- Log (Growth) (Escherichia coli 8739; 4 hours, 50 PPM): 6.667
- Log (Growth) (Escherichia coli 8739; 4 hours, 100 PPM): 7.000
- Log (Growth) (Escherichia coli 8739; 4 hours, 200 PPM): 6.667
- Log (Growth) (Escherichia coli 8739; 24 hours, 6.25 PPM): 6.333
- Log (Growth) (Escherichia coli 8739; 24 hours, 12.5 PPM): 7.333
- Log (Growth) (Escherichia coli 8739; 24 hours, 25 PPM): 6.667
- Log (Growth) (Escherichia coli 8739; 24 hours, 50 PPM): 7.000
- Log (Growth) (Escherichia coli 8739; 24 hours, 100 PPM): 6.667
- Log (Growth) (Escherichia coli 8739; 24 hours, 200 PPM): 7.000
- Log (Growth) ([1]; 0 hours, 6.25 PPM): 7.333
- Log (Growth) ([1]; 0 hours, 12.5 PPM): 7.667
- Log (Growth) ([1]; 0 hours, 25 PPM): 7.333
- Log (Growth) ([1]; 0 hours, 50 PPM): 7.667
- Log (Growth) ([1]; 0 hours, 100 PPM): 8.000
- Log (Growth) ([1]; 0 hours, 200 PPM): 7.667
- Log (Growth) ([1]; 1 hour, 6.25 PPM): 7.000
- Log (Growth) ([1]; 1 hour, 12.5 PPM): 8.000
- Log (Growth) ([1]; 1 hour, 25 PPM): 7.667
- Log (Growth) ([1]; 1 hour, 50 PPM): 7.333
- Log (Growth) ([1]; 1 hour, 100 PPM): 8.000
- Log (Growth) ([1]; 1 hour, 200 PPM): 7.000
- Log (Growth) ([1]; 4 hours, 6.25 PPM): 7.000
- Log (Growth) ([1]; 4 hours, 12.5 PPM): 8.000
- Log (Growth) ([1]; 4 hours, 25 PPM): 7.000
- Log (Growth) ([1]; 4 hours, 50 PPM): 7.000
- Log (Growth) ([1]; 4 hours, 100 PPM): 7.667
- Log (Growth) ([1]; 4 hours, 200 PPM): 7.000
- Log (Growth) ([1]; 24 hours, 6.25 PPM): 7.333
- Log (Growth) ([1]; 24 hours, 12.5 PPM): 7.000
- Log (Growth) ([1]; 24 hours, 25 PPM): 7.333
- Log (Growth) ([1]; 24 hours, 50 PPM): 7.667
- Log (Growth) ([1]; 24 hours, 100 PPM): 8.000
- Log (Growth) ([1]; 24 hours, 200 PPM): 7.667
- Log (Growth) ([2]; 0 hours, 6.25 PPM): 7.667
- Log (Growth) ([2]; 0 hours, 12.5 PPM): 6.333
- Log (Growth) ([2]; 0 hours, 25 PPM): 6.667
- Log (Growth) ([2]; 0 hours, 50 PPM): 6.667
- Log (Growth) ([2]; 0 hours, 100 PPM): 6.667
- Log (Growth) ([2]; 0 hours, 200 PPM): 6.333
- Log (Growth) ([2]; 1 hour, 6.25 PPM): 6.333
- Log (Growth) ([2]; 1 hour, 12.5 PPM): 8.000
- Log (Growth) ([2]; 1 hour, 25 PPM): 6.333
- Log (Growth) ([2]; 1 hour, 50 PPM): 6.000
- Log (Growth) ([2]; 1 hour, 100 PPM): 7.333
- Log (Growth) ([2]; 1 hour, 200 PPM): 8.000
- Log (Growth) ([2]; 4 hours, 6.25 PPM): 7.667
- Log (Growth) ([2]; 4 hours, 12.5 PPM): 6.667
- Log (Growth) ([2]; 4 hours, 25 PPM): 6.667
- Log (Growth) ([2]; 4 hours, 50 PPM): 6.667
- Log (Growth) ([2]; 4 hours, 100 PPM): 7.000
- Log (Growth) ([2]; 4 hours, 200 PPM): 7.000
- Log (Growth) ([2]; 24 hours, 6.25 PPM): 7.333
- Log (Growth) ([2]; 24 hours, 12.5 PPM): 7.333
- Log (Growth) ([2]; 24 hours, 25 PPM): 6.000
- Log (Growth) ([2]; 24 hours, 50 PPM): 6.000
- Log (Growth) ([2]; 24 hours, 100 PPM): 7.000
- Log (Growth) ([2]; 24 hours, 200 PPM): 7.000
- Log (Growth) ([3]; 0 hours, 6.25 PPM): 7.667
- Log (Growth) ([3]; 0 hours, 12.5 PPM): 8.000
- Log (Growth) ([3]; 0 hours, 25 PPM): 7.333
- Log (Growth) ([3]; 0 hours, 50 PPM): 7.667
- Log (Growth) ([3]; 0 hours, 100 PPM): 7.000
- Log (Growth) ([3]; 0 hours, 200 PPM): 7.667
- Log (Growth) ([3]; 1 hour, 6.25 PPM): 7.667
- Log (Growth) ([3]; 1 hour, 12.5 PPM): 8.000
- Log (Growth) ([3]; 1 hour, 25 PPM): 7.333
- Log (Growth) ([3]; 1 hour, 50 PPM): 7.000
- Log (Growth) ([3]; 1 hour, 100 PPM): 7.333
- Log (Growth) ([3]; 1 hour, 200 PPM): 8.000
- Log (Growth) ([3]; 4 hours, 6.25 PPM): 7.667
- Log (Growth) ([3]; 4 hours, 12.5 PPM): 7.667
- Log (Growth) ([3]; 4 hours, 25 PPM): 7.667
- Log (Growth) ([3]; 4 hours, 50 PPM): 7.333
- Log (Growth) ([3]; 4 hours, 100 PPM): 8.000
- Log (Growth) ([3]; 4 hours, 200 PPM): 7.000
- Log (Growth) ([3]; 24 hours, 6.25 PPM): 6.667
- Log (Growth) ([3]; 24 hours, 12.5 PPM): 7.333
- Log (Growth) ([3]; 24 hours, 25 PPM): 7.000
- Log (Growth) ([3]; 24 hours, 50 PPM): 6.667
- Log (Growth) ([3]; 24 hours, 100 PPM): 7.000
- Log (Growth) ([3]; 24 hours, 200 PPM): 7.333
- inhibition under anaerobic as opposed to aerobic conditions [4]: preferentially inhibited hydrogen sulfide production under anaerobic conditions
- killing of the various microorganism strains [4]: completely killing
